The compounds below were run against T1, human JAK1 (Homo sapiens, UniProt P23458) (assay: Alphascreen tyrosine kinase enzyme assay, JAK1 kinase domain). Conditions: read-out: JAK1 IC50_nM.
T1 construct: The kinase domain of human JAK1 was amplified; GST (N); made in house; host or cells: Sf9 insect cells (baculovirus)
T1 sequence (P23458 875-1153 limits assumed): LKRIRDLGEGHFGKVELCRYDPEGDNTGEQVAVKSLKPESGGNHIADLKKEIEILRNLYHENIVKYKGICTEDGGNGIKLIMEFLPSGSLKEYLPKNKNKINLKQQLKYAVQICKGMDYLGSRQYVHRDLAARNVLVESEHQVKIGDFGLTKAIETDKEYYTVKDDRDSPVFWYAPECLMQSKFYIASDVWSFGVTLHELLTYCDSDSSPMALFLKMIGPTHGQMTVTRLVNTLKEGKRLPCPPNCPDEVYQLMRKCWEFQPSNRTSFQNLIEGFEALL
Type: biochemical
Procedure: For screening purposes, compounds (in 100% DMSO) were warmed at 37 degrees for at least 20 minutes before use. A […] stock was initially made in assay buffer, where the final concentration of DMSO was 0.3%. The stocks were then diluted in 384 well Optiplates (Packard) where the final concentration of the compound was […].
The kinase domain of human JAK1 was amplified from U937mRNA using the polymerase chain reaction with the following primers: […]
The JAK1 PCR products were cloned into the pDest20 destination vector (Gibco). The JAK1 plasmid was then transformed into competent DH10Bac cells (Gibco), and the recombinant baculovirus was prepared via Sf9 insect cell transfection.
Baculovirus preparations from each of the constructs were infected into either one or five liters of Sf9 cells (Invitrogen) grown in SF-900 medium (Invitrogen) to a cell density of approximately 1-2×10^6 cells/ml. Cells were infected with virus at a MOI of 0.8-3.0. Cells were harvested and lysed. Tyrosine kinase domains were purified by affinity chromatography on a glutathione-agarose column (Scientifix Pty. Ltd. catalog #: GSH-200).
Kinase assays were performed in 384 well Optiplates (Packard) using an Alphascreen Protein Tyrosine Kinase PY100 detection kit The compounds were pre-incubated with affinity purified PTK domain in the presence of phosphotyrosine assay buffer (10 mM HEPES, pH 7.5, 100 mM MgCl2, 25 mM NaCl, […] and 0.1% Tween 20) for 20 minutes. The compounds were then incubated with substrate in the presence of ATP. The substrate used was susbtrate-1 with the sequence biotin-EGPWLEEEEEAYGWMDF-NH2 [SEQ. ID. NO. 13] (final concentration […]). For HCK 80 μm ATP was used and incubated for 60 minutes. Alphascreen phosphotyrosine acceptor beads followed by streptavidin donor beads at a concentration of 1/100 in stop buffer were added to each well under subdued light and incubated for 2-3 hours., The Alphascreen plates were read on a Packard Fusion Alpha instrument.
For `C=CC(=O)Nc1ccc(Sc2nc(Nc3ccc(OCCCN(CC)CC)cc3)ncc2C)cc1` [Compound 291, N-(4-(2-(4-(3-(diethylao)propoxy)phenylao)-5-methylpyrimidin-4-ylthio)phenyl)acrylamide], the IC50 was over 1000 nM.
In the case of `C=CC(=O)Nc1ccc(Sc2ccnc(Nc3cc(C)cc(C)c3)n2)cc1` [Compound 82, N-(4-(2-(3,5-dimethylphenylao)pyrimidin-4-ylthio)phenyl)acrylamide], the IC50 is reported as over 1000 nM.
With `Cc1cnc(Nc2ccc(N3CCOCC3)cc2)nc1Sc1ccc(NC(=O)CSCC(=O)O)cc1` [Compound 230, 2-(2-(4-(5-methyl-2-(4-morpholinophenylao)pyrimidin-4-ylthio)phenylao)-2-oxoethylthio)acetic acid] the IC50 was under 1000 nM.
`C=CC(=O)Nc1cccc(Sc2ccnc(Nc3cccc(N4CCOCC4)c3)n2)c1` [Compound 110, N-(3-(2-(3-morpholinophenylao)pyrimidin-4-ylthio)phenyl)acrylamide] was tested, and the IC50 was over 1000 nM.
Work on `C=CC(=O)Nc1ccc(Sc2nc(Nc3ccc(OCCN4CCOCC4)cc3)ncc2C)cc1` [Compound 290, N-(4-(5-methyl-2-(4-(2-morpholinoethoxy)phenylao)pyrimidin-4-ylthio)phenyl)acrylamide] yielded an IC50 of over 1000 nM.
`OCc1cccc(Sc2ccnc(Nc3ccc(N4CCOCC4)cc3)n2)c1` [Compound 62, (3-(2-(4-Morpholinophenylamino)pyrimidin-4-ylthio)phenyl)methanol] was tested, and the IC50 was over 1000 nM.
For `C=CC(=O)Nc1ccc(Sc2nc(Nc3cccc(NS(C)(=O)=O)c3)ncc2C)cc1` [Compound 288, N-(4-(5-methyl-2-(3-(methylsulfonamido)phenylao)pyrimidin-4-ylthio)phenyl)acrylamide], the IC50 was over 1000 nM.
Compound `C=CC(=O)Nc1ccc(Sc2nc(Nc3ccc(N4CCOCC4)cc3)ncc2C)c(C)c1` [Compound 163, N-(3-methyl-4-(5-methyl-2-(4-morpholinophenylao)pyrimidin-4-ylthio)phenyl)acrylamide] has an IC50 of over 1000 nM.
For `O=C(/C=C\Cl)Nc1ccc(Sc2ccnc(Nc3ccc(N4CCOCC4)cc3)n2)cc1` [Compound 346, (Z)-3-chloro-N-(4-(2-(4-morpholinophenylao)pyrimidin-4-ylthio)phenyl)acrylamide], the IC50 was over 1000 nM.
In the case of `C=CC(=O)Nc1cccc(Sc2ccnc(Nc3ccc(N4CCOCC4)cc3)n2)c1` [Compound 23, N-(3-(2-(4-morpholinophenylamino)pyrimidin-4-ylthio)phenyl)acrylamide], the IC50 is reported as over 1000 nM.
`C=CC(=O)Nc1ccc(Sc2nc(Nc3ccc(NS(C)(=O)=O)c(OC)c3)ncc2C)cc1` [Compound 296, N-(4-(2-(3-methoxy-4-(methylsulfonamido)phenylao)-5-methylpyrimidin-4-ylthio)phenyl)acrylamide] showed an IC50 of over 1000 nM.
Work on `C=CC(=O)Nc1ccc(Sc2ccnc(Nc3cccc(N4CCOCC4)c3)n2)cc1` [Compound 77, N-(4-(2-(3-morpholinophenylao)pyrimidin-4-ylthio)phenyl)acrylamide] yielded an IC50 of over 1000 nM.
For `C=CC(=O)Nc1ccc(Sc2nc(Nc3ccc(N4CCCC(O)C4)cc3)ncc2C)cc1` (centres unmarked) [Compound 299, N-(4-(2-(4-(3-hydroxypiperidin-1-yl)phenylao)-5-methylpyrimidin-4-ylthio)phenyl)acrylamide], the IC50 was over 1000 nM.
`c1cc(Sc2ccc(Cn3cnnn3)cc2)nc(Nc2ccc(N3CCOCC3)cc2)n1` [Compound 109, 4-(4-((1H-tetrazol-1-yl)methyl)phenylthio)-N-(4-morpholinophenyl)pyrimidin-2-ae] was tested, and the IC50 was over 1000 nM.
`CNC(=O)/C=C\C(=O)Nc1ccc(Sc2nc(Nc3ccc(N4CCOCC4)cc3)ncc2C)cc1` [Compound 389, N1-methyl-N4-(4-(5-methyl-2-(4-morpholinophenylao)pyrimidin-4-ylthio)phenyl)maleamide] showed an IC50 of over 1000 nM.
In the case of `C=CC(=O)Nc1ccc(Sc2nc(Nc3ccc(N4CCC(CO)CC4)cc3)ncc2C)cc1` [Compound 286, N-(4-(2-(4-(4-(hydroxymethyl)piperidin-1-yl)phenylao)-5-methylpyrimidin-4-ylthio)phenyl)acrylamide], the IC50 is reported as over 1000 nM.
`N#Cc1ncn(Cc2ccc(Sc3ccnc(Nc4ccc(N5CCOCC5)cc4)n3)cc2)c1C#N` [Compound 201, 1-(4-(2-(4-morpholinophenylao)pyrimidin-4-ylthio)benzyl)-1H-imidazole-4,5-dicarbonitrile] showed an IC50 of over 1000 nM.
Work on `C=CC(=O)Nc1ccc(Sc2nc(Nc3ccc(N4CCOCC4)cc3)ncc2F)cc1` [Compound 268, N-(4-(5-fluoro-2-(4-morpholinophenylao)pyrimidin-4-ylthio)phenyl)acrylamide] yielded an IC50 of over 1000 nM.
For `N#Cc1nnnn1Cc1ccc(Sc2ccnc(Nc3ccc(N4CCOCC4)cc3)n2)cc1` [Compound 155, 1-(4-(2-(4-morpholinophenylao)pyrimidin-4-ylthio)benzyl)-1H-tetrazole-5-carbonitrile], the IC50 was over 1000 nM.
Compound `Cc1cnc(Nc2ccc(N3CCOCC3)cc2)nc1Sc1ccc(NC(=O)/C=C\C(=O)O)cc1` [Compound 380, (Z)-4-(4-(5-methyl-2-(4-morpholinophenylao)pyrimidin-4-ylthio)phenylao)-4-oxobut-2-enoic acid] has an IC50 of over 1000 nM.
Work on `Cc1cnc(Nc2cccc(O)c2)nc1Sc1ccc(NC(=O)CCl)cc1` [Compound 194, 2-chloro-N-(4-(2-(3-hydroxyphenylao)-5-methylpyrimidin-4-ylthio)phenyl)acetamide] yielded an IC50 of over 1000 nM.
With `C=CC(=O)Nc1ccc(Sc2nc(Nc3ccc(N4CCN(C)CC4)cc3)ncc2C)cc1` [Compound 239, N-(4-(5-methyl-2-(4-(4-methylpiperazin-1-yl)phenylao)pyrimidin-4-ylthio)phenyl)acrylamide] the IC50 was under 500 nM.
`Cc1cc(N)ccc1Sc1nc(Nc2ccc(N3CCOCC3)cc2)ncc1C` [Compound 162, 4-(4-ao-2-methylphenylthio)-5-methyl-N-(4-morpholinophenyl)pyrimidin-2-ae] was tested, and the IC50 was under 500 nM.
In the case of `O=C(/C=C/Cl)Nc1cccc(Sc2ccnc(Nc3ccc(N4CCOCC4)cc3)n2)c1` [Compound 340, (E)-3-chloro-N-(3-(2-(4-morpholinophenylao)pyrimidin-4-ylthio)phenyl)acrylamide], the IC50 is reported as over 1000 nM.
`C=CC(=O)Nc1ccc(Sc2ccnc(Nc3ccc(N4CCOCC4)cc3)n2)cc1OC` [Compound 123, N-(2-methoxy-4-(2-(4-morpholinophenylao)pyrimidin-4-ylthio)phenyl)acrylamide] gave an IC50 of over 1000 nM.
`Cc1cnc(Nc2ccc(N3CCOCC3)cc2)nc1Sc1ccc(N2C(=O)CSCC2=O)cc1` [Compound 231, 4-(4-(5-methyl-2-(4-morpholinophenylao)pyrimidin-4-ylthio)phenyl)thiomorpholine-3,5-dione] gave an IC50 of over 1000 nM.
`C=CC(=O)Nc1cccc(Nc2nccc(Sc3ccccn3)n2)c1` [Compound 2, N-(3-(4-(pyridin-2-ylthio)pyrimidin-2-ylamino)phenyl)acrylamide] was tested, and the IC50 was over 1000 nM.
Compound `C=CC(=O)Nc1ccc(Sc2nc(Nc3ccc(N4CCC(O)C4)cc3)ncc2C)cc1` (centres unmarked) [Compound 295, N-(4-(2-(4-(3-hydroxypyrrolidin-1-yl)phenylao)-5-methylpyrimidin-4-ylthio)phenyl)acrylamide] has an IC50 of over 1000 nM.
Work on `Cc1cnc(Nc2ccc(O)cc2)nc1Sc1ccc(NC(=O)CCl)cc1` [Compound 193, 2-chloro-N-(4-(2-(4-hydroxyphenylao)-5-methylpyrimidin-4-ylthio)phenyl)acetamide] yielded an IC50 of over 1000 nM.
Work on `C=CC(=O)N(C)c1ccc(Sc2nc(Nc3ccc(N4CCOCC4)cc3)ncc2Br)cc1` [Compound 261, N-(4-(5-bromo-2-(4-morpholinophenylao)pyrimidin-4-ylthio)phenyl)-N-methylacrylamide] yielded an IC50 of over 1000 nM.
With `C=CC(=O)N(C)c1ccc(Sc2nc(Nc3ccc(N4CCOCC4)cc3)ncc2C)cc1` [Compound 173, N-methyl-N-(4-(5-methyl-2-(4-morpholinophenylao)pyrimidin-4-ylthio)phenyl)acrylamide] the IC50 was under 500 nM.
`C=CC(=O)Nc1ccc(Sc2nc(Nc3cccc(N4CCN(C)CC4)c3)ncc2C)cc1` [Compound 243, N-(4-(5-methyl-2-(3-(4-methylpiperazin-1-yl)phenylao)pyrimidin-4-ylthio)phenyl)acrylamide] was tested, and the IC50 was over 1000 nM.
For `C=CC(=O)Nc1ccc(Sc2nc(Nc3cccc(N4CCOCC4)c3)ncc2F)cc1` [Compound 267, N-(4-(5-fluoro-2-(3-morpholinophenylao)pyrimidin-4-ylthio)phenyl)acrylamide], the IC50 was over 1000 nM.
In the case of `N#Cc1nnn(Cc2ccc(Sc3ccnc(Nc4ccc(N5CCOCC5)cc4)n3)cc2)n1` [Compound 156, 2-(4-(2-(4-morpholinophenylao)pyrimidin-4-ylthio)benzyl)-2H-tetrazole-5-carbonitrile], the IC50 is reported as over 1000 nM.
Work on `C=CC(=O)Nc1ccc(Sc2nc(Nc3ccc(C4CCN(C)CC4)cc3)ncc2C)cc1` [Compound 246, N-(4-(5-methyl-2-(4-(1-methylpiperidin-4-yl)phenylao)pyrimidin-4-ylthio)phenyl)acrylamide] yielded an IC50 of over 1000 nM.

From US8846704B2, “Thiopyrimidine-based compounds and uses thereof” (YM Biosciences Austraila Pty Ltd, priority 2007, dated 2014)
